*1 amine or outer side, *2 acyl side, *3 side chain or, on linkers, in order; H or OH if unused. Where a SMILES comes first, the peptide text is derived from it. Side-chain parts run from the residue outwards. [ ]: non-standard residue; d: D form. The star is where a group is joined. NMePhe(4-NH(5-NH2-Trz-3-yl)) = CN[C@@H](Cc1ccc(Nc2n[nH]c(N)n2)cc1)C(=O)O; Shikimoyl = O=C(C1=C[C@@H](O)[C@@H](O)[C@H](O)C1)*; Quinoline4carbonyl = O=C(c1ccnc2ccccc12)*; dPhe(4-Cl) = N[C@H](Cc1ccc(Cl)cc1)C(=O)O; d2Nal = N[C@H](Cc1ccc2ccccc2c1)C(=O)O; Lys(iPr) = CC(C)NCCCC[C@H](N)C(=O)O; NMeY = CN[C@@H](Cc1ccc(O)cc1)C(=O)O; Ethylenediamine = C(CN[*:2])N[*:1]; d3Pal = N[C@H](Cc1cccnc1)C(=O)O; Nicotinoyl = O=C(c1cccnc1)*; X4 = Nc1nc(NCC(=O)*)n[nH]1; dOrn = NCCC[C@@H](N)C(=O)O; 2Furoyl = O=C(c1ccco1)*; CO = O=C([*:1])[*:2]; Propionyl = CCC(=O)*; Ahx = NCCCCCC(=O)O; azaGly = NNC(=O)O; βAla = NCCC(=O)O; Sar = CNCC(=O)O

This assay concerns the target T1, LHRH receptor (Rattus norvegicus, UniProt P30969).
T1 construct: endogenous in cells
T1 sequence (P30969 1-327): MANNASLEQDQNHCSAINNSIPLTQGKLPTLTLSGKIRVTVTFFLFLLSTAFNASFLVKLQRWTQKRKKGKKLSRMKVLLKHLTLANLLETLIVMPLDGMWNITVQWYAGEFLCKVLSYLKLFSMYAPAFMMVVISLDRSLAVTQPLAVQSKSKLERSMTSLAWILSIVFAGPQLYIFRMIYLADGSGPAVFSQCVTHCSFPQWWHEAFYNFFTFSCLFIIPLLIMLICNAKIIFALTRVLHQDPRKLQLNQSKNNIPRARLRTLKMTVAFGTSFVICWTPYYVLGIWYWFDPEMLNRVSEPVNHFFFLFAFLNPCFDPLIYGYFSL
In words: in vitro LHRH antagonist potency (pA2) against the agonist leuprolide. Type of assay: cell-based. As to conditions: negative logarithm of the antagonist concentration which shifts the response curve produced by the agonist leuprolide to two-fold higher concentration. The procedure: Representative compounds of the present invention were evaluated in in vitro tests for receptor binding (pKI) and for LHRH antagonist potency (pA2). The tests employed the methods detailed in F. Haviv, et al., J. Med. Chem., 32: 2340-2344 (1989). The receptor binding affinities (pKI) are the negative logarithms of the equilibtirum dissociation constants (pA2) are the negative logarithms of the concentration of antagonist which shift the response curve roduced by the agonist leuprolide to two-fold higher concentration. (Leuprolide is the LHRH agonist having the structure 5-oxo-Pro^1 -His^2 -Trp^3 -Ser^4 -Tyr^5 -D-Leu^6 -Leu^7 -Arg^8 -Pro^9 -NHEt and is disclosed and claimed in U.S. Pat. No. 4,005,063.) Typically pA2 values of 9.5 or greater are indicative of good LHRH antagonist potency.
For the compound `CC(=O)N[C@H](Cc1ccc2ccccc2c1)C(=O)N[C@H](Cc1ccc(Cl)cc1)C(=O)N[C@H](Cc1cccnc1)C(=O)N[C@@H](CO)C(=O)N(C)[C@@H](Cc1ccc(O)cc1)C(=O)N[C@H](CCCCNC(=O)CNC(=O)C1=C[C@@H](O)[C@@H](O)[C@H](O)C1)C(=O)N[C@@H](CC(C)C)C(=O)N[C@@H](CCCCNC(C)C)C(=O)N1CCC[C@H]1C(=O)N[C@H](C)C(N)=O` [Example 6b, NAc-D2Nal^1 -D4ClPhe^2 -D3Pal^3 -Ser^4 -NMeTyr^5 -DLys(N-epsilon-Gly-Shikimyl)^6 -Leu^7 -Lys(N-epsilon-Isopropyl)^8 -Pro^9 -DAla^10 NH2] (Ac-[d2Nal][dPhe(4-Cl)][d3Pal]S[NMeY][dK]([Gly-Shikimoyl])L[Lys(iPr)]P[dA]-NH2), the Kb was 0.024 nM.

Consider `CC(=O)N[C@H](Cc1ccc2ccccc2c1)C(=O)N[C@H](Cc1ccc(Cl)cc1)C(=O)N[C@H](Cc1cccnc1)C(=O)N[C@@H](CO)C(=O)N(C)[C@@H](Cc1ccc(O)cc1)C(=O)N[C@H](CCCCNC(=O)CNC(=O)c1ccnc2ccccc12)C(=O)N[C@@H](CC(C)C)C(=O)N[C@@H](CCCNC(=N)N)C(=O)N1CCC[C@H]1C(=O)N[C@H](C)C(N)=O` [Example 51d, NAc-D2Nal^1 -D4ClPhe^2 -D3Pal^3 -Ser^4 -NMeTyr^6 -DLys(N-epsilon-Gly-4-Quinolinyl)^6 -Leu^7 -Arg^8 -Pro^9 -DAla^10 NH2] (Ac-[d2Nal][dPhe(4-Cl)][d3Pal]S[NMeY][dK]([Gly-Quinoline4carbonyl])LRP[dA]-NH2), for which the antagonist equilibrium constant (Kb) was 0.0141 nM. With `CC(=O)N[C@H](Cc1ccc2ccccc2c1)C(=O)N[C@H](Cc1ccc(Cl)cc1)C(=O)N[C@H](Cc1cccnc1)C(=O)N[C@@H](CO)C(=O)N(C)[C@@H](Cc1ccc(O)cc1)C(=O)N[C@H](CCCCNC(=O)NNC(=O)c1ccco1)C(=O)N[C@@H](CC(C)C)C(=O)N[C@@H](CCCCNC(C)C)C(=O)N1CCC[C@H]1C(=O)N(C)CC(N)=O` [Example 59, NAc-D2Nal^1 -D4ClPhe^2 -D3Pal^3 -Ser^4 -NMeTyr^5 -DLys(N-epsilon-Azagly-Fur-2-oyl)^6 -Leu^7 -Lys(N-epsilon-Isopropyl)^8 -Pro^9 -Sar^10 NH2] (Ac-[d2Nal][dPhe(4-Cl)][d3Pal]S[NMeY][dK]([azaGly-2Furoyl])L[Lys(iPr)]P[Sar]-NH2) the figure was 0.0363 nM; with `CC(=O)N[C@H](Cc1ccc2ccccc2c1)C(=O)N[C@H](Cc1ccc(Cl)cc1)C(=O)N[C@H](Cc1cccnc1)C(=O)N[C@@H](CO)C(=O)N(C)[C@@H](Cc1ccc(O)cc1)C(=O)N[C@H](CCCNC(=O)[C@@H](CO)NC(=O)C1=C[C@@H](O)[C@@H](O)[C@H](O)C1)C(=O)N[C@@H](CC(C)C)C(=O)N[C@@H](CCCNC(=N)N)C(=O)N1CCC[C@H]1C(=O)N[C@H](C)C(N)=O` [Example 49d, NAc-D2Nal^1 -D4ClPhe^2 -D3Pal^3 -Ser^4 -NMeTyr^5 -DOrn(N-epsilon-DSer-Shikimyl)^6 -Leu^7 -Arg^8 -Pro^9 -DAla^10 NH2] (Ac-[d2Nal][dPhe(4-Cl)][d3Pal]S[NMeY][dOrn]([dS-Shikimoyl])LRP[dA]-NH2), 0.00166 nM. The result for `CC(=O)N[C@H](Cc1ccc2ccccc2c1)C(=O)N[C@H](Cc1ccc(Cl)cc1)C(=O)N[C@H](Cc1cccnc1)C(=O)N[C@@H](CO)C(=O)N(C)[C@@H](Cc1ccc(Nc2n[nH]c(N)n2)cc1)C(=O)N[C@H](CCCCNC(=O)CNc1n[nH]c(N)n1)C(=O)N[C@@H](CC(C)C)C(=O)N[C@@H](CCCCNC(C)C)C(=O)N1CCC[C@H]1C(=O)N[C@H](C)C(N)=O` [Example 63, NAc-D2Nal^1 -D4ClPhe^2 -D3Pal^3 -Ser^4 -NMePhe(Atz)^5 -DLys(N-epsilon-N'-Gly-Atz)^6 -Leu^7 -Lys(N-epsilon-Isopropyl)^8 -Pro^9 -DAla^10 NH2] (Ac-[d2Nal][dPhe(4-Cl)][d3Pal]S[NMePhe(4-NH(5-NH2-Trz-3-yl))][dK](X4)L[Lys(iPr)]P[dA]-NH2) reads 0.00447 nM. Take `CC(=O)N[C@H](Cc1ccc2ccccc2c1)C(=O)N[C@H](Cc1ccc(Cl)cc1)C(=O)N[C@H](Cc1cccnc1)C(=O)N[C@@H](CO)C(=O)N(C)[C@@H](Cc1ccc(O)cc1)C(=O)N[C@H](CCCCNC(=O)NCCNC(=O)c1ccco1)C(=O)N[C@@H](CC(C)C)C(=O)N[C@@H](CCCNC(=N)N)C(=O)N1CCC[C@H]1C(=O)N[C@H](C)C(N)=O` [Example 36, NAc-D2Nal^1 -D4ClPhe^2 -D3Pal^3 -Ser^4 -NMeTyr^5 -DLys[N-epsilon-(N'-Carbonyl-Diaminoethane-N"-Furoyl)]^6 -Leu^7 -Arg^8 -Pro^9 -DAla^10 NH2] (Ac-[d2Nal][dPhe(4-Cl)][d3Pal]S[NMeY][dK]([CO-Ethylenediamine-2Furoyl])LRP[dA]-NH2): the antagonist equilibrium constant (Kb) is 0.0107 nM.

For the compound `CC(=O)N[C@H](Cc1ccc2ccccc2c1)C(=O)N[C@H](Cc1ccc(Cl)cc1)C(=O)N[C@H](Cc1cccnc1)C(=O)N[C@@H](CO)C(=O)N(C)[C@@H](Cc1ccc(O)cc1)C(=O)N[C@H](CCCCNC(=O)[C@@H](C)NC(=O)C1=C[C@@H](O)[C@@H](O)[C@H](O)C1)C(=O)N[C@@H](CC(C)C)C(=O)N[C@@H](CCCNC(=N)N)C(=O)N1CCC[C@H]1C(=O)N[C@H](C)C(N)=O` [Example 38a, NAc-D2Nal^1 -D4ClPhe^2 -D3Pal^3 -Ser^4 -NMeTyr^5 -DLys(N-epsilon-DAla-Shikimyl)^6 -Leu^7 -Arg^8 -Pro^9 -DAla^10 NH2] (Ac-[d2Nal][dPhe(4-Cl)][d3Pal]S[NMeY][dK]([dA-Shikimoyl])LRP[dA]-NH2), the antagonist dissociation constant (Kb) is 0.0282 nM. Consider `CC(=O)N[C@H](Cc1ccc2ccccc2c1)C(=O)N[C@H](Cc1ccc(Cl)cc1)C(=O)N[C@H](Cc1cccnc1)C(=O)N[C@@H](CO)C(=O)N(C)[C@@H](Cc1ccc(O)cc1)C(=O)N[C@H](CCCCNC(=O)CN(C)C(=O)C1=C[C@@H](O)[C@@H](O)[C@H](O)C1)C(=O)N[C@@H](CC(C)C)C(=O)N[C@@H](CCCNC(=N)N)C(=O)N1CCC[C@H]1C(=O)N[C@H](C)C(N)=O` [Example 48f, NAc-D2Nal^1 -D4ClPhe^2 -D3Pal^3 -Ser^4 -NMeTyr^5 -DLys(N-epsilon-Sar-Shikimyl)^6 -Leu^7 -Arg^8 -Pro^9 -DAla^10 NH2] (Ac-[d2Nal][dPhe(4-Cl)][d3Pal]S[NMeY][dK]([Sar-Shikimoyl])LRP[dA]-NH2), for which the Kb is 0.0126 nM.

On to `CCC(=O)NNC(=O)NCCCC[C@@H](NC(=O)[C@H](Cc1ccc(O)cc1)N(C)C(=O)[C@H](CO)NC(=O)[C@@H](Cc1cccnc1)NC(=O)[C@@H](Cc1ccc(Cl)cc1)NC(=O)[C@@H](Cc1ccc2ccccc2c1)NC(C)=O)C(=O)N[C@@H](CC(C)C)C(=O)N[C@@H](CCCCNC(C)C)C(=O)N1CCC[C@H]1C(=O)N[C@H](C)C(N)=O` [Example 58, NAc-D2Nal^1 -D4ClPhe^2 -D3Pal^3 -Ser^4 -NMeTyr^5 -DLys(N-epsilon-Azagly-Propionyl)^6 -Leu^7 -Lys(N-epsilon-Isopropyl)^8 -Pro^9 -DAla^10 NH2] (Ac-[d2Nal][dPhe(4-Cl)][d3Pal]S[NMeY][dK]([azaGly-Propionyl])L[Lys(iPr)]P[dA]-NH2), for which the Kb is 0.0257 nM.

For `CC(=O)N[C@H](Cc1ccc2ccccc2c1)C(=O)N[C@H](Cc1ccc(Cl)cc1)C(=O)N[C@H](Cc1cccnc1)C(=O)N[C@@H](CO)C(=O)N(C)[C@@H](Cc1ccc(O)cc1)C(=O)N[C@H](CCCCNC(=O)CNC(=O)c1ccco1)C(=O)N[C@@H](CC(C)C)C(=O)N[C@@H](CCCCNC(C)C)C(=O)N1CCC[C@H]1C(=O)N[C@H](C)C(N)=O` [Example 6a, NAc-D2Nal^1 -D4ClPhe^2 -D3Pal^3 -Ser^4 -NMeTyr^5 -DLys(N-epsilon-Gly-2-Furoyl)^6 -Leu^7 -Lys(N-epsilon-Isopropyl)^8 -Pro^9 -DAla^10 NH2] (Ac-[d2Nal][dPhe(4-Cl)][d3Pal]S[NMeY][dK]([Gly-2Furoyl])L[Lys(iPr)]P[dA]-NH2), the Kb was 0.0158 nM. With `CC(=O)N[C@H](Cc1ccc2ccccc2c1)C(=O)N[C@H](Cc1ccc(Cl)cc1)C(=O)N[C@H](Cc1cccnc1)C(=O)N[C@@H](CO)C(=O)N(C)[C@@H](Cc1ccc(O)cc1)C(=O)N[C@H](CCCCNC(=O)CCNC(=O)NNC(=O)c1cccnc1)C(=O)N[C@@H](CC(C)C)C(=O)N[C@@H](CCCCNC(C)C)C(=O)N1CCC[C@H]1C(=O)N[C@H](C)C(N)=O` [Example 25a, NAc-D2Nal^1 -D4ClPhe^2 -D3Pal^3 -Ser^4 -NMeTyr^5 -DLys[N-epsilon-(beta-Alanyl)-Azagly-Nicotinyl]^6 -Leu^7 -Lys(N-epsilon-Isopropyl)^8 -Pro^9 -DAla^10 NH2] (Ac-[d2Nal][dPhe(4-Cl)][d3Pal]S[NMeY][dK]([βAla-azaGly-Nicotinoyl])L[Lys(iPr)]P[dA]-NH2) the figure was 0.0363 nM; with `CC(=O)N[C@H](Cc1ccc2ccccc2c1)C(=O)N[C@H](Cc1ccc(Cl)cc1)C(=O)N[C@H](Cc1cccnc1)C(=O)N[C@@H](CO)C(=O)N(C)[C@@H](Cc1ccc(O)cc1)C(=O)N[C@H](CCCCNC(=O)CCCCCNC(=O)c1cccnc1)C(=O)N[C@@H](CC(C)C)C(=O)N[C@@H](CCCCNC(C)C)C(=O)N1CCC[C@H]1C(=O)N[C@H](C)C(N)=O` [Example 4e, NAc-D2Nal^1 -D4ClPhe^2 -D3Pal^3 -Ser^4 -NMeTyr^5 -DLys[N-epsilon-(N-epsilon-aminocaproyl)-Nicotinyl]^6 -Leu^7 -Lys(N-epsilon-Isopropyl)^8 -Pro^9 -DAla^10 NH2] (Ac-[d2Nal][dPhe(4-Cl)][d3Pal]S[NMeY][dK]([Ahx-Nicotinoyl])L[Lys(iPr)]P[dA]-NH2), 0.0339 nM.
